16 compounds from PMC6261607, “Novel high–throughput myofibroblast assays identify agonists with therapeutic potential in pulmonary fibrosis that act via EP2 and EP4 receptors” (PLoS ONE, 2018) can be followed below.

Where two headings read alike, the source gives them in different places.

In experiment [1] the test system is normal human lung fibroblasts (NHLF). As to the kind of experiment: Phenotypic high-content assay (HCA) of TGF–β1–induced fibroblast–to–myofibroblast differentiation. In kind it is cell-based. The conditions noted are these: NHLF, 5 ng/ml TGF–β1 for 48 h, compound added with TGF–β1, mean ± SD, read-out: HCA IC50. The protocol: The plate was washed 3 times with starvation medium, e.g. fibroblast basal medium (FBM, Lonza) supplemented with 0.1% faf BSA, 100 units / ml of penicillin and 100 μg / ml of streptomycin and 250 ng / ml amphotericin B, and then starved for 24 h in 30 μl volume. NHLF were differentiated into myofibroblasts by incubation with 5 ng / ml TGF–β1 (from a stock of 20 μg / ml in 4 mM HCl, 1 mg / ml BSA) for 48 h. Compounds were prepared as 5x stocks in starvation medium and added to the starved cells to a final 1x concentration concomitant with TGF–β1 addition. The final DMSO concentration in the assay was 0.6% in all wells. 48 h after TGF–β1 addition, the medium was removed and the cells were fixed in methanol for 10 min at room temperature (RT). After fixation, cells were washed 3 times with 1 x PBS and either stored at 4°C for up to 3 days or further processed. […] Images were acquired on the Opera Phenix confocal high–content screening system (Perkin Elmer) using the 20–x water immersion lens.
DAPI stained nuclei were used to identify cells. α–SMA and FN regions were then identified and mapped to the corresponding nuclei for background correction, cell segmentation and cell feature computation to identify, classify and weigh over 400 features per cell. The computed features (S1 Table) comprise, but are not limited to, granularity, intensity, texture, area, shape and solidity of a cell in both α–SMA–and FN–expressing regions. The 0% compound effect (5 ng / ml TGF–β1) and the 100% compound effect (0 ng / ml TGF–β1) controls, were used to train and validate a support vector machine (SVM), a supervised learning model with associated learning algorithm that, once successfully validated, was applied to every cell in every well of the assayed microtiter plate. The SVM allowed autonomous weighting and classification of the characteristics and thus enabled the classifier to decide which characteristics were most relevant for the differentiation of the cell types. […] The classification of each cell was aggregated to a cell type ratio per well, represented as the computed percentage effect value per well indicative of the degree of myofibroblast differentiation. E.g. 100% equals complete myofibroblast differentiation, 0% indicates a pure fibroblast population without any signs of differentiation.

Experiment [2] shares this test system. As to the kind of experiment: Impedance measurement of TGF–β1–induced myofibroblast transition (IPQA), standard assay. In kind it is cell-based. The conditions noted are these: 5 ng/ml TGF–β1, compound added with TGF–β1, impedance at t = 20 h post TGF–β1, mean ± SD, read-out: Impedance IC50. The protocol: To measure dynamic cell shape and adhesion changes during fibrotic transdifferentiation, NHLF were seeded at a density of 20,000 cells per well in FGM–2 growth medium (Lonza) containing 100 units / ml of penicillin and 100 μg / ml of streptomycin into E–plates with continued impedance signal measurement (xCELLigence system, Roche Applied Science). After overnight growth, the medium was exchanged for FBM (Lonza) supplemented with 100 units / ml of penicillin and 100 μg / ml of streptomycin and 0.1% faf BSA and cells were starved for 32 h. Compound dilution series were added and myofibroblast transition was induced by adding TGF–β1 at a concentration of 5 ng / ml, followed by continued impedance sampling for up to 48 h. For data analysis, impedance raw traces were normalized to the time point of compound addition and the baseline response (DMSO, non–TGF–β1 treated cells) was subtracted. In some cases, impedance values at defined time points were used to generate concentration–response curves to determine compound potency and efficacy using GraphPad Prism software version 7 (GraphPad Software Inc).

Experiment [3] concerns α–SMA protein in NHLF cells. As to the kind of experiment: RapidFire MS/MS quantification of α–SMA (IPQA), standard assay. In kind it is cell-based, human. The conditions noted are these: NHLF, 5 ng/ml TGF–β1, lysed 48 h after TGF–β1, normalized to tubulin, mean ± SD, read-out: MS / MS α–SMA IC50. The protocol:
(§1) Cell culture medium was removed and cells were lysed on ice by adding 5 μl / well of pre–cooled protein extraction buffer containing 10 mM Tris–HCl (pH 8.0), 6 M urea and 2 M thiourea and shaking on ice on a plate shaker at 600 rpm for 30 min.
(§2) Cell lysate was transferred to a 96–well polypropylene–PCR–plate. 15 μl / well denaturation buffer (6 M urea, 50 mM ammonium bicarbonate) and 2 μl / well of 50 mM TCEP were added and samples were denatured for 1 h at 60°C using the Veriti 96–well Fast Thermal Cycler System (Applied Biosystem) with a heated lid. Plates were allowed to cool to RT. Subsequently, 2 μl of 100 mM iodoacetamide were added per well to derivatize cysteine residues. Plates were then sealed and vortexed for 2 min in the dark and incubated for 30 min at 37°C in a thermal cycler with a heated lid. 90 μl of 50 mM ammonium bicarbonate pH 7.8 were added, followed by the addition of 10 μl of trypsin at 0.02 μg / ml. Samples were trypsin–digested overnight at 37°C in a thermal cycler with heated lid. […] Samples were desalted under vacuum using an Oasis HLB 96–well (30 μm particle size, 5 mg sorbent / well) reverse phase cartridge according to the manufacturer’s instructions and eluted with 170 μl of 90% acetonitrile, 0.1% formic acid. Samples were dried down with a flow of nitrogen at 40°C, left to cool to RT and re–suspended in 40 μl 5% acetonitrile, 0.1% formic acid on a plate shaker set to 1400 rpm for 5 min. Plates were centrifuged at 4,000 rpm for 10 min and 2 times 12 μl / well of supernatant were transferred into separate 96–well plates (Greiner Bio–One), sealed and stored at 4°C until analyzed by MS / MS.
(§3) Surrogate tryptic peptides were chosen for detection of COL1 (COL1A1), α–SMA (ACTA) and tubulin (TBA1A1) and crude synthetic peptides were purchased from Thermo Fischer. After several rounds of optimization following standard workflows, […] (COL1 / COL1A1), […] (α–SMA / ACTA) and […] LC–MS / MS analysis was performed on a RapidFire™ RF360 system (Agilent Technologies) coupled to an API 5500 (ABSciex) with positive ion electrospray ionization. […] Detection was performed using multiple reaction monitoring (MRM) mode to monitor parent⟶product ion transitions (m / z). […] The source parameters were curtain gas (CUR) nitrogen: 20 psig; collision gas (CAD): 7 psig; ion source gas 1: 50.0 psig; ion source gas 2: 50.0 psig; ion spray voltage (IS): 5500 V; turbo heater temperature (TEM): 600°C; entrance potential (EP): 10V. Peak areas for COL1A1 and ACTA were normalized by dividing by TBA1A peak area.

The subject of experiment [4] is COL1 protein in NHLF cells. As to the kind of experiment: RapidFire MS/MS quantification of COL1 (IPQA), standard assay. It is filed as cell-based, human. The conditions noted are these: NHLF, 5 ng/ml TGF–β1, lysed 48 h after TGF–β1, normalized to tubulin, mean ± SD, read-out: MS / MS COL1 IC50. The protocol: as §1, §2, §3

For the compound `Nc1[nH]nc2nnc(-c3c(-c4ccccc4)nn4ccccc34)cc12` [FR180204], the IC50 was over 46 µM in experiment [1], 50 µM in experiment [2], 49 µM in experiment [3] and 36 µM in experiment [4].

Consider `O=C1c2ccc(Nc3ccc(F)cc3F)cc2CCc2ccc(OC[C@H](O)CO)cc21` [L–skepinone], for which the IC50 came to 23 µM in experiment [1] (Homo sapiens, Fibroblast, 48 h); 5 µM in experiment [2] (Fibroblast); 0.96 ± 0.44 µM in experiment [3] (Homo sapiens); 1.5 µM in experiment [4] (Homo sapiens, Col1, 48 h).

As for `COc1cc(O)c2c(c1)/C=C/C[C@H](O)[C@H](O)C(=O)/C=C\C[C@H](C)OC2=O` [5Z–7–Oxozeaenol], the IC50 in experiment [1] was determined as 2.6 µM; in experiment [2] it was 0.25 ± 0.17 µM; in experiment [3], 0.3 ± 0.27 µM; in experiment [4], 0.46 ± 0.27 µM.

As for `CN(C)Cc1cccc(N/C(=C2\C(=O)Nc3cc(C(=O)N(C)C)ccc32)c2ccccc2)c1` [BIX 02189], the IC50 in experiment [1] was 22 µM; in experiment [2], 6 µM; in experiment [3], 14 µM; in experiment [4] it was 6.5 µM.

In the case of `O=C(Nc1cccc(Nc2ncc(Br)c(NCCc3cnc[nH]3)n2)c1)N1CCCC1` [BX–912], the IC50 in experiment [1] was 17 µM; in experiment [2] it was 7.5 µM; in experiment [3], 8.6 µM; in experiment [4], 8.7 µM.

Take `O=c1cc(N2CCOCC2)oc2c(-c3ccccc3)cccc12` [LY294002]: the IC50 stood at 2.4 µM in experiment [1] (Homo sapiens, Fibroblast, 48 h); 13 µM in experiment [2] (Fibroblast); 27 µM in experiment [3] (Homo sapiens); 45 µM in experiment [4] (Homo sapiens, Col1, 48 h).

`COc1cccc(-c2cc(=O)c3ccccc3o2)c1N` [PD98059]: the IC50 was over 46 µM in experiment [1], 19 µM in experiment [2], 50 µM in experiment [3] and over 50 µM in experiment [4].

For `Oc1c2ccccc2c2c3c(cccc13)N=N2` [SP600125], the IC50 in experiment [1] (Homo sapiens, Fibroblast, 48 h) is over 46 µM; in experiment [2] (Fibroblast), 48.5 µM; in experiment [3] (Homo sapiens) it was 38 µM; in experiment [4] (Homo sapiens, Col1) it was 36 µM.

On to `CC(C)NC[C@@H](C(=O)N1CCN(c2ncnc3c2[C@H](C)C[C@H]3O)CC1)c1ccc(Cl)cc1` [Ipatasertib], for which the IC50 was 22 µM in experiment [1] (Homo sapiens, Fibroblast, 48 h); 43 µM in experiment [2] (Fibroblast); 25 µM in experiment [3] (Homo sapiens); over 50 µM in experiment [4] (Homo sapiens, Col1).

Take `O=C(NCc1cccc(O)c1)Nc1nc(-c2ccncc2)cs1` [RKI 1447]: the IC50 in experiment [1] was 4.3 µM; in experiment [2], 8.4 µM; in experiment [3] it was 0.15 ± 0.022 µM; in experiment [4], 12.2 µM.

For the compound `Cn1c(=O)c(Oc2ccc(F)cc2F)cc2cnc(NC(CCO)CCO)nc21` [Pamapimod], the IC50 is over 46 µM in experiment [1] (Homo sapiens, Fibroblast, 48 h); 19 µM in experiment [2] (Fibroblast); 34 µM in experiment [3] (Homo sapiens); over 50 µM in experiment [4] (Homo sapiens, Col1).

Regarding `Cc1cccc(-c2[nH]c(C(C)(C)C)nc2-c2ccc3nccnc3c2)n1` [SB525334], the IC50 stood at 2.5 µM in experiment [1], 0.12 ± 0.025 µM in experiment [2], 0.09 ± 0.005 µM in experiment [3] and 0.38 ± 0.11 µM in experiment [4].

For `CC[C@@H](C(=O)[C@@H](C)[C@@H](O)[C@H](C)[C@@H]1O[C@@H]([C@@H](CC)C(=O)O)CC[C@@H]1C)[C@H]1O[C@]2(C=C[C@@H](O)[C@]3(CC[C@@](C)([C@H]4CC[C@](O)(CC)[C@H](C)O4)O3)O2)[C@H](C)C[C@@H]1C` [Salinomycin], the IC50 amounted to 15.8 µM in experiment [1] (Homo sapiens, Fibroblast); 1.5 µM in experiment [2] (Fibroblast); 0.29 ± 0.3 µM in experiment [3] (Homo sapiens); 1.2 µM in experiment [4] (Homo sapiens, Col1).

As for `Cc1ccccc1-n1c(Cn2cnc3c(N)ncnc32)nc2cccc(C)c2c1=O` [IC–87114], the IC50 was 44 µM in experiment [1], over 5 µM in experiment [2], over 5 µM in experiment [3] and 4.9 µM in experiment [4].

In the case of `CCOc1cc(N2CCC(O)CC2)ccc1Nc1ncc2c(n1)N(C)c1ccccc1C(=O)N2C` [XMD 8–92], the IC50 in experiment [1] stood at 12 µM; in experiment [2], 4.4 µM; in experiment [3] it was 2.4 µM; in experiment [4], 5.4 µM.

In the case of `CCCCCCCC(=O)c1c(O)cc(O)cc1CC(=O)OCC` [Csn–B], the IC50 in experiment [1] is 39 µM; in experiment [2], over 50 µM; in experiment [3], over 50 µM; in experiment [4], over 50 µM.
